Source: US20260256751A1, “COMBINATION OF BETA-2-ADRENERGIC RECEPTOR AGONISTS AND GLP-1 RECEPTOR AGONISTS FOR USE IN TREATING HYPERGLYCAEMIA” (ATROGI AB, priority 2023, published 2026)

Experiments:
[1] = system: differentiated L6-myotubes; experiment: Glucose uptake screen (Biological example 1 of WO 2019/053427); assay type: cell-based; details: compound at 10 μM, activity relative to isoproterenol at 10 μM, read-out: Biological example 1 of WO 2019/053427 (GU)
Procedure, shortened: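 Uptake was read out as ^3H-2-deoxyglucose (50 nM, 10 min) radioactivity in NaOH lysates. Beforehand, overnight-starved, differentiated L6 myotubes received compound at 1×10^−5 M with ICI-118551 present for 1 h 40 min, followed by fresh agonist for a further 20 min in glucose-free medium.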

[2] = system: differentiated L6-myotubes; experiment: cAMP production relative to isoprenaline (Biological example 2 of WO 2019/053427); assay type: cell-based; details: 0.25 h, compound at 10 μM, activity relative to isoproterenol at 10 μM
Procedure, shortened: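 Values are cAMP levels relative to isoprenaline at equal concentration (final 1×10^−5 M for both). Stimulation lasted 15 min in differentiated L6 myotubes, using HBSS buffer (pH 7.4) containing 1 mM IBMX, 5 mM HEPES and 1% BSA.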

Structure (SMILES)	Emax at 10 µM [1] [%]	Emax at 10 µM [2] [%]
O[C@@H](c1cncc(F)c1)C12CCC(CCCc3ccccc3)(CC1)N2 [Compound 531, (S)-(5-fluoro-3-pyridyl){4-(3-phenylpropyl)-7-azabicyclo[2.2.1]hept-1-yl}methanol]	50 to 75	< 25
O[C@H](c1cccc(F)c1)C12CCC(C/C=C/c3ccccc3)(CC1)N2 [Compound 534, (R)-{4-[(E)-3-phenyl-2-propenyl]-7-azabicyclo[2.2.1]hept-1-yl}(m-fluorophenyl)methanol]	> 75	< 25
CC(C)(C[C@H]1CC[C@@H](NC(=O)C(F)(F)F)CC1)NC[C@H](O)c1cccc(F)c1 [Compound 454, N-[(1S,4s)-4-{2-[(R)-2-(m-fluorophenyl)-2-hydroxyethylamino]-2-methylpropyl}cyclohexyl]trifluoroacetamide]	> 75	< 25
CN([C@H]1CC[C@@H](CC(C)(C)NC[C@H](O)c2cccc(F)c2)CC1)S(C)(=O)=O [Compound 498, (R)-2-{1,1-dimethyl-2-[(1s,4S)-4-(N-mesyl-N-methylamino)cyclohexyl]ethylamino}-1-(m-fluorophenyl)-1-ethanol]	25 to 50	< 25
CC(C)(C[C@H]1CC[C@@H](NS(C)(=O)=O)CC1)NC[C@H](O)c1cccc(C#N)n1 [Compound 422, 6-[(S)-2-{1,1-dimethyl-2-[(1s,4R)-4-(mesylamino)cylcohexyl]ethylamino}-1-hydroxyethyl]-2-pyridinecarbonitrile]	50 to 75	< 25
O[C@H](c1cccc(F)c1)C12CCC(CCc3ccc(Cl)cc3)(CC1)N2 [Compound 528, (R)-{4-[2-(p-chlorophenyl)ethyl]-7-azabicyclo[2.2.1]hept-1-yl}(m-fluorophenyl)methanol]	< 25	< 25
O[C@@H](c1cccc(F)c1)[C@H]1CCC2(CCCC2)N1 [Compound 169, (S)-{(R)-1-aza-2-spiro[4.4]nonyl}(m-fluorophenyl)methanol]	< 25	< 25
CC12CC(C1)[C@H]([C@H](O)c1cccc(Cl)c1)N2 [Compound 206, (R)-{(R)-1-methyl-2-azabicyclo[2.1.1]hex-3-yl}(m-chlorophenyl)methanol]	> 75	< 25
CC(C)(C)NCC(O)c1ccncc1O (stereo not drawn) [Compound 134, 4-[2-(tert-butylamino)-1-hydroxyethyl]-3-pyridinol]	> 75	< 25
Cn1ccc([C@@H](O)CNC(C)(C)C)cc1=O [Compound 98, 4-[(R)-2-(tert-butylamino)-1-hydroxyethyl]-1-methyl-2(1H)-pyridinone]	> 75	< 25
CO[C@@H]1CCC[C@H](C(C)(C)NC[C@H](O)c2cncc(F)c2)C1 [Compound 257, (R)-2-{1-[(1S,3R)-3-methoxycyclohexyl]-1-methylethylamino}-1-(5-fluoro-3-pyridyl)-1-ethanol]	50 to 75	< 25
O[C@@H](c1cncc(F)c1)C12CCC(C/C=C/c3ccccc3)(CC1)N2 [Compound 529, (S)-{4-[(E)-3-phenyl-2-propenyl]-7-azabicyclo[2.2.1]hept-1-yl}(5-fluoro-3-pyridyl)methanol]	25 to 50	< 25
CCCCNCC(O)c1cc(Cl)c(N)c(C(F)(F)F)c1 (stereo not drawn) [Compound 32, 1-[4-amino-3-chloro-5-(trifluoromethyl)phenyl]-2-(butylamino)-1-ethanol]	> 75	25 to 50
CCC[C@@H]1CCC[C@H]([C@H](O)c2cccc(O)c2)N1 [Compound 45, (R)-[(2R,6R)-6-propyl-2-piperidyl](m-hydroxyphenyl)methanol]	> 75	< 25
CO[C@H]1CC[C@H](C[C@]2(C)CC[C@H]([C@@H](O)c3cccc(F)c3)N2)CC1 [Compound 363, (S)-[(2R,5S)-5-methyl-5-{[(1r,4S)-4-methoxycyclohexyl]methyl}-2-pyrrolidinyl](m-fluorophenyl)methanol]	> 75	< 25
CCC[C@H]1CCCC[C@@H]([C@@H](O)c2cncc(F)c2)N1 [Compound 235, (S)-[(2S,7S)-7-propyl-2-azepanyl](5-fluoro-3-pyridyl)methanol]	< 25	< 25
CO[C@H]1CC[C@H](C[C@@H]2CC[C@H]([C@@H](O)c3cccc(F)c3)N2)CC1 [Compound 325, (S)-[(2R,5S)-5-{[(1r,4S)-4-methoxycyclohexyl]methyl}-2-pyrrolidinyl](m-fluorophenyl)methanol]	> 75	< 25
CC12CCC([C@H](O)c3cccc(F)c3)(CC1)N2 [Compound 179, (R)-(m-fluoropehnyl)(4-methyl-7-azabicyclo[2.2.1]hept-1-yl)methanol]	50 to 75	< 25

Structure (SMILES)	Emax at 10 µM [1] [%]	Emax at 10 µM [2] [%]
COCC12CCC([C@H](O)c3cccc(F)c3)(CC1)N2 [Compound 330, (R)-(m-fluorophenyl){4-(methoxymethyl)-7-azabicyclo[2.2.1]hept-1-yl}methanol]	> 75	< 25
CCCC(C)NCC(O)c1ccc(O)cc1 (stereo not drawn) [Compound 8, 1-(p-hydroxyphenyl)-2-(1-methylbutylamino)-1-ethanol]	50 to 75	25 to 50
CC12CC(C1)[C@H]([C@H](O)c1ccccc1F)N2 [Compound 210, (R)-{(R)-1-methyl-2-azabicyclo[2.1.1]hex-3-yl}(o-fluorophenyl)methanol]	> 75	> 75
CC1(C)C[C@@H]([C@H](O)c2ccccc2F)N1 [Compound 202, (R)-[(S)-4,4-dimethyl-2-azetidinyl](o-fluorophenyl)methanol]	< 25	< 25
CC(C)(C[C@H]1CC[C@H](NS(C)(=O)=O)CC1)NC[C@H](O)c1cncc(F)c1 [Compound 360, (R)-2-{1,1-dimethyl-2-[(1r,4R)-4-(mesylamino)cyclohexyl]ethylamino}-1-(5-fluoro-3-pyridyl)-1-ethanol]	> 75	< 25
O[C@@H](c1cccc(F)c1)[C@H]1CCC2(CC2)N1 [Compound 171, (S)-{(R)-4-aza-5-spiro[2.4]heptyl}(m-fluorophenyl)methanol]	25 to 50	< 25
CCC(C)NCC(O)c1ccc(O)cc1 (stereo not drawn) [Compound 5, 2-(sec-butylamino)-1-(p-hydroxyphenyl)-1-ethanol]	50 to 75	< 25
O[C@@H](CNCCC[C@H]1CC[C@H](OCc2ccccc2)CC1)c1cccc(F)c1 [Compound 278, (R)-1-(m-fluoropheny)-2-{3-[(1r,4S)-4-(benzyloxy)cyclohexyl]pro-pylamino}-1-ethanol]	25 to 50	< 25
CC1(C)CCC[C@H]([C@@H](O)c2ccccc2Cl)N1 [Compound 163, (S)-[(R)-6,6-dimethyl-2-piperidyl](o-chlorophenyl)methanol]	> 75	< 25
O[C@H](c1cccc(F)c1)C12CCC(COc3ccc(Cl)cc3)(CC1)N2 [Compound 441, (R)-{4-[(p-chlorophenoxy)methyl]-7-azabicyclo[2.2.1]hept-1-yl}(m-fluorophenyl)methanol]	> 75	< 25
CCC[C@@H](C)NC[C@H](O)c1cccc(O)c1 [Compound 28, (R)-2-[(R)-1-methylbutylamino]-1-(m-hydroxyphenyl)-1-ethanol]	> 75	50 to 75
CC12CC(C1)[C@H]([C@@H](O)c1cccc(N)c1F)N2 [Compound 243, (S)-{(R)-1-methyl-2-azabicyclo[2.1.1]hex-3-yl}(3-amino-2-fluorophenyl)methanol]	50 to 75	< 25
CC12CC(C1)[C@@H]([C@@H](O)c1cccc(F)c1)N2 [Compound 189, (S)-{(S)-1-methyl-2-azabicyclo[2.1.1]hex-3-yl}(m-fluorophenyl)methanol]	50 to 75	< 25
CC1(C)CCC[C@H]([C@H](O)c2ccccc2Cl)N1 [Compound 162, (R)-[(R)-6,6-dimethyl-2-piperidyl](o-chlorophenyl)methanol]	25 to 50	< 25
Oc1ccc(C(O)CNCCC2CCCCC2)cc1 (stereo not drawn) [Compound 16, 2-(2-cyclohexylethylamino)-1-(p-hydroxyphenyl)-1-ethanol]	25 to 50	< 25
Cc1ncccc1[C@@H](O)CNC(C)(C)C[C@H]1CC[C@@H](NS(C)(=O)=O)CC1 [Compound 437, (R)-2-{1,1-dimethyl-2-[(1s,4S)-4-(mesylamino)cyclohexyl]ethylamino}-1-(2-methyl-3-pyridyl)-1-ethanol]	25 to 50	< 25
CC1(C)CC[C@H]([C@H](O)c2cncc(O)c2)N1 [Compound 167, 5-{(R)-[(R)-5,5-dimethyl-2-pyrrolidinyl]hydroxymeth-yl}-3-pyridinol]	50 to 75	< 25
CC(C)(C[C@H]1CC[C@@H](NC(=O)C2CCC2)CC1)NC[C@H](O)c1cccc(F)c1 [Compound 448, N-[(1S,4s)-4-{2-[(R)-2-(m-fluorophenyl)-2-hydroxyethylamino]-2-methylpropyl}cyclohexyl]cyclobutanecarboxamide]	50 to 75	< 25
